# From patent publication US20260263468A1 (Fundación Instituto de Investigación Sanitaria Fundación …, priority 2023, published 2026)
# What was measured:
# C2C12 [1] = conditions: dipyridamole 1 μM ± PSB-603 1 μM
# Experimental: (§1) Cells were lysed with RIPA buffer and protein concentration was determined by BCA. […] Variations in intensity were expressed as % of basal (day 0) and expressed as mean±SEM. All results were calculated as a percentage of non-differentiated controls to minimize the intrinsic variation among different experiments.
# C2C12 [2] = test: Western blot of phosphorylated AMPK; format: cell-based; conditions: 1 μM each, day 4; control 1.29±0.27%
# Experimental: as §1
# We next studied if these changes in AMP/ATP ratio had any effect in AMPK activation.
# [3] = test system: K/B×N serum transfer-induced arthritis; test: Histological analysis of tibialis anterior (H&E, ATPase, picrosirius red, oil red O)
# Experimental: Analysis of tibialis tissue structure by Hematoxylin and eosin (H&E) staining was performed. Frozen samples were sectioned at 10 μm. For staining and subsequent processing by image segmentation we followed the indications established by Liu et al (53). Briefly, sections were brought from −80° C. to room temperature and immediately immersed in methanol for 30 min to improve fixation and stained with Hematoxylin and eosin. Image analysis was performed with ImagePro 2.2 using the Muscle Morphometry plugin following Liu's protocol.
# H&E staining was performed on frozen tibialis anterior (TA). Frozen samples were section at 10 μm. For staining and subsequent processing by image segmentation we followed the indications established by Liu et al (53). Briefly, sections were brought from −80° C. to room temperature and immediately immersed in methanol for 30 min to improve fixation and stained with hematoxylin and eosin. Image analysis of cross-sectional area (CSA) was performed with ImagePro 2.2 using the Muscle Morphometry plugin following Liu's protocol.
# ATPase staining was performed in TA 10 μM cross-sections as previously described (2). Briefly, cross-sections were incubated 45 min in 0.1 M glycine/NaCl buffer pH 9.4 with 0.75 M CaCl2 and 5 mg ATP (Sigma-Aldrich). After rinsed in distilled water, sections were incubated in 2% cobalt chloride, and then immersed in dilute (1/10) ammonium chloride to develop type 1 (white) and type 2 (black) fibers. After dehydration, sections were mounted with DPX mounting medium (VWR International Ltd., Lutterworth, UK). The quantification of the fiber types was performed using the Image J software package 1.49v (NIH, Bethesda, MD, USA).
# Picrosirius Red staining was performed in TA to visualized tissue fibrosis. Slides were air-drayed for 30 min at room temperature and fixed in PFA 4% 30 min. Next, the sections were incubated for 90 min in picrosirius red solution (Polysciences) and immersed immediately in 0.1M HCl solution (Polysciences) for 1 min. The sections were washed 2 times in H2O, dehydrated in serial dilutions of alcohol and mounted with DPX. Bright field and polarized light images were taken. The quantification of infiltration of collagen I were performed using the Image J software package 1.49v (NIH, Bethesda, MD, USA) on polarized images.
# To visualize triglycerides infiltration in the muscle, serial frozen TA 10 μm cross-sections were thaw and air dry and fixed in PFA 4% for 1 h before oil red O staining. […] Then we isolate the oil red staining retained in muscle with 200 μL of isopropanol in agitation to quantify the fat infiltrated in every muscle. The oil red released was read from 75 μL samples in a 96-well plate by Tecan Spark 20M in duplicate at 500 nm.
# C2C12 cells = test: Cell proliferation assay (AlamarBlue); format: cell-based; conditions: 10^−9-10^−5 M, 24 and 48 hours
# Experimental: C2C12 cells (American Type Culture Collection, ATCC, Manassas, VA, USA) were cultured in DMEM supplemented with 10% FBS and 1% penicillin-streptomycin. To induce myogenic differentiation, 70% confluence C2C12 cells were culture in DMEM containing 2% HS (horse serum). Cells were maintained in a humidified chamber at 37° C., in 95% air and 5% CO2. Media was replaced with fresh every 48h.
# C2C12 cells were plated in 96-well plates (Corning, Cultek, Spain) (12.500 cells/well). Cell proliferation was measured using AlamarBlue assay according to the manufacturer's instructions, at 24 and 48 h of myogenic differentiation.
# [4] = test system: K/B×N serum transfer-induced arthritis; test: Western blot of gastronemius, acute model
# [5] = test system: K/B×N serum transfer-induced arthritis; test: Resolved inflammation model (30 days): tissues weight, inflammation, body weight; format: in vivo, C57BL/6J mice; conditions: for BAT, Absolute weight / Bodyweight, Absolute weight / EDL, Absolute weight / Gastronemius, Absolute weight / Tibialis, Absolute weight / WAT, Absolute weight: resolved model
# Experimental: Animals were sacrificed 30 days after serum transfer.
# Mice were weighted weekly. Development of arthritis was assessed daily, and the severity of arthritis was assessed in each paw on a 4-point scale defined as follows: 0=normal appearance, 1=localized edema/erythema over one surface of the paw, 2=edema/erythema involving more than one surface of the paw, and 3-4=marked edema/erythema involving the whole paw. Scores of all 4 paws were added for a composite score. All motor activity tests were performed prior to serum inoculation and at the highest point of inflammation. Mice were euthanized on day 16 for acute inflammation model or 30 days for Inflammation resolved model. A representative photo of body structure and muscle of pawn were taken on this day. Gastronemius was collected for protein and RNA extraction. Tibialis and soleus were included for freeze histology following the indications of H. Meng (see references in ref. 44). Bones were prepared for micro-computed tomography (microCT) and histology. Blood was drawn and serum was isolated for measurement of inflammatory cytokines and C-reactive protein (CPR).
# Body weight and muscle loss continue happening until day 30 when inflammation is resolved (FIG. 15), and dipy treatment continues reverting inflammation effects (FIG. 15A).
# [6] = test system: K/B×N serum transfer-induced arthritis; test: Motor activity tests in K/B×N serum transfer arthritis; format: in vivo, C57BL/6 mice
# Experimental: Physical activity tests were performed to assess the motor development of the mice during the arthritic process as follows:
# Ambulation in 12-week-old male C57BL/6 mice was recorded following the protocol described by Gibbs and Crosbie-Watson (2). Mice were placed in individual recording chambers and were allowed to freely move for 6 min. Distance traveled by each animal was determined using object tracking in Kinovea open-source video analysis software (V 0.9.5).
# The coordinated motor function of the four limbs was evaluated with the rotarod test (Rotarod, Harvard Apparatus, USA) with male C57BL/6 mice at the age of 12-week-old. Burgos et al. protocol was followed with modifications (76). Mice were first familiarized with the rotarod by letting them stay for 120s on the rod rotating at 4 and 6 rotations per minute (rpm). Motor activity was assessed by training the mice with an accelerated rotarod protocol of three trials, during which the rod accelerated from 4 rpm to 40 rpm within 5 min.
# Ambulation in 12-week-old male C57BL/6 mice was recorded following the protocol described by Gibbs and Crosbie-Watson (see references in ref. 44). Mice were placed in individual recording chambers and were allowed to freely move for 6 min. Distance traveled by each animal was determined using object tracking in Kinovea open-source video analysis software (V 0.9.5).
# The Grip Strength Meter (Ugo Basile, #47200) was utilized to assess the grip strength peak of the forelimbs. The mouse held onto a bar, and the highest force exerted during the pull was measured in grams using a digital force transducer. In the test, the mouse gripped a bar attached to the force gauge. Next, an investigator pulled the mouse's tail backward. The gauge recorded tension at the moment the mouse released its forepaws from the bar.
# The coordinated motor function of the four limbs was evaluated with the rotarod test (Rotarod, Harvard Apparatus, USA) with male C57BL/6 mice at the age of 12-week-old. Burgos et al. protocol was followed with modifications (see references in ref. 44). Mice were first familiarized with the rotarod by letting them stay for 120s on the rod rotating at 4 and 6 rotations per minute (rpm). Motor activity was assessed by training the mice with an accelerated rotarod protocol of three trials, during which the rod accelerated from 4 rpm to 40 rpm within 5 min.
# C2C12 [7] = test: Western blot of adenosine receptors, P2X7 and Panx-1 during differentiation; format: cell-based; conditions: 1 μM
# Experimental: as §1
# The expression of adenosine receptors, P2X7 receptor and Panx-1 channel was analyzed during myoblast differentiation.
# [8] = healthy mice, dipy alone vs sham
# [9] = healthy mice, dipyridamole alone, Sham 100±1%
# [10] = RA mice, dipy started 7 days after serum transfer
smiles,measurement,setting,value
"OCCN(CCO)c1nc(N2CCCCC2)c2nc(N(CCO)CCO)nc(N3CCCCC3)c2n1 [dipyridamole, 2,6-bis(Diethanolamino)-4,8-dipiperidinopyrimido[5,4-d]pyrimidine]",PAX7 protein expression,"C2C12 [1]; 2% HS, day 1",198±24%
same,MHC protein expression,C2C12 [1]; day 1,95±13%
same,Myf5 protein expression,C2C12 [1]; day 3,79.48±31%
same,PKAα protein expression,C2C12 [1]; day 4,358±156%
same,pAMPK expression,C2C12 [1]; day 4,284±79.8%
same,pCREB,C2C12 [1]; day 4,399.6±119.8%
same,pAMPK (Western blot),C2C12 [2],2.66±0.7%
same,Collagen I fibers (Picrosirius Red),"[3]; RA+Dipy, RA 111.1±1.20%, Sham 100±1.26%",94.78±0.98%
same,Fat infiltrate in TA (Oil Red staining),"[3]; RA+Dipy, RA 170.1±6.94%, Sham 100±3.97%",99.21±7.217%
same,Tibialis muscle fiber area,"[3]; arthritic mice + dipyridamole, acute model, arthritic 508±20, sham 1211±43",1305±35 μm^2
same,Fat infiltration across whole muscle (TA and EDL),"[3]; healthy mice, dipy alone",able to decrease this fat infiltration
same,Proliferation,C2C12 cells,No significant changes
same,CK protein expression,"[4]; RA+Dipy, RA 77.98±10.81%, Sham 100±0%",393.4±55.09%
same,A2B receptor expression in gastronemius,"[4]; arthritic mice + dipyridamole, arthritic 35±9%, Sham 100±1%",160±14%
same,AMPK phosphorylation in gastronemius,"[4]; arthritic mice + dipyridamole, arthritic 53±7%, sham 100±1%",152±5%
same,MHC protein expression in gastronemius,"[4]; arthritic mice + dipyridamole, arthritic 60±7%, sham 100±1%",184±6%
same,A2A receptor expression in gastronemius,"[4]; arthritic mice + dipyridamole, arthritic 71±3%, Sham 100±1%",123±6%
same,Pax7 protein expression in gastronemius,"[4]; arthritic mice + dipyridamole, arthritic 151±13%, sham 100±1%",274±11%
same,p21 protein expression,"[4]; arthritic mice + dipyridamole, arthritic 221±38%",64±15%
same,p16 protein expression,"[4]; arthritic mice + dipyridamole, arthritic 392±25%",139±32%
same,Pax7 and MHC protein expression in gastronemius,[4]; [8],non-significant increase
same,A2A receptor expression in gastronemius,[4]; [9],118.8±11.30%
same,A2B receptor expression in gastronemius,[4]; [9],167.6±10.63%
same,pAMPK expression in gastronemius,[4]; [9],194.2±5.2%
same,Body weight,[5]; [10],body weight gain starting one week after first dipy dose
same,Joint inflammation,[5]; [10],complete reversion of inflammation
same,"BAT, Absolute weight",[5]; Dipy alone,0.15 ± 0.01 g
same,"Bodyweight, Absolute weight",[5]; Dipy alone,27 ± 0.5 g
same,"EDL, Absolute weight",[5]; Dipy alone,0.03 ± 0.01 g
same,"Gastronemius, Absolute weight",[5]; Dipy alone,0.39 ± 0.03 g
same,"Tibialis, Absolute weight",[5]; Dipy alone,0.16 ± 0.02 g
same,"WAT, Absolute weight",[5]; Dipy alone,0.14 ± 0.06 g
same,"BAT, Absolute weight",[5]; RA + Dipy D 0,0.17 ± 0.01 g
same,"EDL, Absolute weight",[5]; RA + Dipy D 0,0.03 ± 0.01 g
same,"Gastronemius, Absolute weight",[5]; RA + Dipy D 0,0.37 ± 0.02 g
same,"Tibialis, Absolute weight",[5]; RA + Dipy D 0,0.11 ± 0.01 g
same,"WAT, Absolute weight",[5]; RA + Dipy D 0,0.15 ± 0.08 g
same,"Bodyweight, Absolute weight",[5]; RA + Dipy D 0 (preventive),26.4 ± 1.31 g
same,"BAT, Absolute weight",[5]; RA + Dipy D 7,0.15 ± 0.01 g
same,"Gastronemius, Absolute weight",[5]; RA + Dipy D 7,0.33 ± 0.02 g
same,"Tibialis, Absolute weight",[5]; RA + Dipy D 7,0.05 ± 0.01 g
same,"WAT, Absolute weight",[5]; RA + Dipy D 7,0.18 ± 0.12 g
same,"Bodyweight, Absolute weight",[5]; RA + Dipy D 7 (therapeutic),27.26 ± 1.20 g
same,Ambulatory activity: distance travelled,"[6]; arthritic mice + dipyridamole, 2 weeks, arthritic 830±37, sham 1393±187",1203±53 cm
same,Two limb hanging test average score,"[6]; arthritic mice + dipyridamole, arthritic 3.6±3.3, sham 12±3",9.8±2
same,Rotarod latency to fall,"[6]; arthritic mice + dipyridamole, arthritic 43.3±5.4, sham 75.9±3.3",73.3±10.9 seg
same,"Motor tests (ambulatory activity, grip strength, two limb hanging, rotarod)",[6]; [8],behave similar
same,A3 receptor protein expression,C2C12 [7]; compared to control,did not change
same,P2X7 protein expression (% of basal),C2C12 [7]; day 4,202±46%
